Numbers after ± are expanded uncertainties.
Experiment: mn = molality of the nth substance listed, in mol/kg
Conditions: 101 kPa, Liquid; for electrical conductivity: CyberScan CON500 conductivity meter

For `[Cl-].[Li+]` [lithium chloride] + CCO, the electrical conductivity (298.15 K, m1 = 0.196) was 0.231 ± 0.018 S/m, the electrical conductivity (298.15 K, m1 = 0.391) was 0.354 ± 0.028 S/m and the electrical conductivity (298.15 K, m1 = 0.782) was 0.506 ± 0.041 S/m. The electrical conductivity (298.15 K, m1 = 1.173) was 0.589 ± 0.047 S/m, the electrical conductivity (298.15 K, m1 = 1.76) was 0.629 ± 0.05 S/m and the electrical conductivity (298.15 K, m1 = 2.347) was 0.6 ± 0.048 S/m. It also gave an electrical conductivity (298.15 K, m1 = 3.129) of 0.514 ± 0.041 S/m, an electrical conductivity (298.15 K, m1 = 3.911) of 0.427 ± 0.034 S/m and a mass density (298.15 K, m1 = 0.196) of 782.4 ± 2.9 kg/m3. For the same molecule, the viscosity (298.15 K, m1 = 0.196) was 1.218 ± 0.059 mPa·s, the mass density (298.15 K, m1 = 0.391) was 788.3 ± 2.9 kg/m3 and the viscosity (298.15 K, m1 = 0.391) was 1.412 ± 0.068 mPa·s. For the same molecule, the mass density (298.15 K, m1 = 0.782) was 799.4 ± 3 kg/m3, the viscosity (298.15 K, m1 = 0.782) was 1.677 ± 0.079 mPa·s and the mass density (298.15 K, m1 = 1.173) was 810.3 ± 3 kg/m3. It also gave a viscosity (298.15 K, m1 = 1.173) of 2.057 ± 0.096 mPa·s, a mass density (298.15 K, m1 = 1.76) of 823.8 ± 3.1 kg/m3 and a viscosity (298.15 K, m1 = 1.76) of 2.767 ± 0.13 mPa·s. It also gave a mass density (298.15 K, m1 = 2.347) of 842.3 ± 3.2 kg/m3, a viscosity (298.15 K, m1 = 2.347) of 3.869 ± 0.18 mPa·s and a mass density (298.15 K, m1 = 3.129) of 861.9 ± 3.3 kg/m3. It also gave a viscosity (298.15 K, m1 = 3.129) of 5.908 ± 0.26 mPa·s, a mass density (298.15 K, m1 = 3.911) of 880.5 ± 3.4 kg/m3 and a viscosity (298.15 K, m1 = 3.911) of 9.071 ± 0.37 mPa·s. It also gave an electrical conductivity (303.15 K, m1 = 0.196) of 0.25 ± 0.02 S/m, an electrical conductivity (303.15 K, m1 = 0.391) of 0.384 ± 0.031 S/m and an electrical conductivity (303.15 K, m1 = 0.782) of 0.554 ± 0.044 S/m. The electrical conductivity (303.15 K, m1 = 1.173) was 0.649 ± 0.052 S/m, the electrical conductivity (303.15 K, m1 = 1.76) was 0.697 ± 0.056 S/m and the electrical conductivity (303.15 K, m1 = 2.347) was 0.67 ± 0.054 S/m. It also gave an electrical conductivity (303.15 K, m1 = 3.129) of 0.575 ± 0.046 S/m, an electrical conductivity (303.15 K, m1 = 3.911) of 0.487 ± 0.039 S/m and a mass density (303.15 K, m1 = 0.196) of 776.5 ± 3 kg/m3. It also gave a viscosity (303.15 K, m1 = 0.196) of 1.089 ± 0.053 mPa·s, a mass density (303.15 K, m1 = 0.391) of 782.5 ± 3.1 kg/m3 and a viscosity (303.15 K, m1 = 0.391) of 1.306 ± 0.063 mPa·s. For the same molecule, the mass density (303.15 K, m1 = 0.782) was 794.7 ± 3.1 kg/m3, the viscosity (303.15 K, m1 = 0.782) was 1.527 ± 0.073 mPa·s and the mass density (303.15 K, m1 = 1.173) was 804.8 ± 3.2 kg/m3. It also gave a viscosity (303.15 K, m1 = 1.173) of 1.846 ± 0.087 mPa·s, a mass density (303.15 K, m1 = 1.76) of 819.5 ± 3.3 kg/m3 and a viscosity (303.15 K, m1 = 1.76) of 2.469 ± 0.11 mPa·s. The mass density (303.15 K, m1 = 2.347) was 837.1 ± 3.4 kg/m3, the viscosity (303.15 K, m1 = 2.347) was 3.436 ± 0.16 mPa·s and the mass density (303.15 K, m1 = 3.129) was 856.7 ± 3.5 kg/m3. It also gave a viscosity (303.15 K, m1 = 3.129) of 5.171 ± 0.23 mPa·s, a mass density (303.15 K, m1 = 3.911) of 875.4 ± 3.6 kg/m3 and a viscosity (303.15 K, m1 = 3.911) of 7.924 ± 0.33 mPa·s. The electrical conductivity (308.15 K, m1 = 0.196) was 0.27 ± 0.022 S/m, the electrical conductivity (308.15 K, m1 = 0.391) was 0.42 ± 0.034 S/m and the electrical conductivity (308.15 K, m1 = 0.782) was 0.605 ± 0.048 S/m. It also gave an electrical conductivity (308.15 K, m1 = 1.173) of 0.711 ± 0.057 S/m, an electrical conductivity (308.15 K, m1 = 1.76) of 0.772 ± 0.062 S/m and an electrical conductivity (308.15 K, m1 = 2.347) of 0.746 ± 0.06 S/m. For the same molecule, the electrical conductivity (308.15 K, m1 = 3.129) was 0.644 ± 0.051 S/m, the electrical conductivity (308.15 K, m1 = 3.911) was 0.551 ± 0.044 S/m and the mass density (308.15 K, m1 = 0.196) was 773.8 ± 3.2 kg/m3. It also gave a viscosity (308.15 K, m1 = 0.196) of 1.006 ± 0.05 mPa·s, a mass density (308.15 K, m1 = 0.391) of 779.7 ± 3.2 kg/m3 and a viscosity (308.15 K, m1 = 0.391) of 1.129 ± 0.055 mPa·s. For the same molecule, the mass density (308.15 K, m1 = 0.782) was 791.2 ± 3.3 kg/m3, the viscosity (308.15 K, m1 = 0.782) was 1.369 ± 0.066 mPa·s and the mass density (308.15 K, m1 = 1.173) was 802.3 ± 3.4 kg/m3. For the same molecule, the viscosity (308.15 K, m1 = 1.173) was 1.671 ± 0.079 mPa·s, the mass density (308.15 K, m1 = 1.76) was 816.6 ± 3.4 kg/m3 and the viscosity (308.15 K, m1 = 1.76) was 2.223 ± 0.1 mPa·s. The mass density (308.15 K, m1 = 2.347) was 835.6 ± 3.5 kg/m3, the viscosity (308.15 K, m1 = 2.347) was 3.077 ± 0.14 mPa·s and the mass density (308.15 K, m1 = 3.129) was 854.7 ± 3.6 kg/m3. For the same molecule, the viscosity (308.15 K, m1 = 3.129) was 4.578 ± 0.21 mPa·s, the mass density (308.15 K, m1 = 3.911) was 873.6 ± 3.7 kg/m3 and the viscosity (308.15 K, m1 = 3.911) was 6.884 ± 0.29 mPa·s.

From the NIST ThermoML archive (doi:10.1021/je800150h)
